Test [1] has as its target T1, β-lactamase TEM1 (Escherichia coli, UniProt P62593).
T1 construct: The β-lactamases are isolated from bacterial strains which are resistant to penicillins and cephalosporins; endogenous in cells; host or cells: E. coli 250HT21 (natural producer; French-press lysate, 100,000 g supernatant)
As to the kind of experiment: Inhibition of isolated β-lactamase Tem-1 (Nitrocefin hydrolysis). It is filed as biochemical, E.coli 250HT21. The following applies: 100 μM Nitrocefin, 50 mM sodium phosphate buffer pH7.0, 37° C. How it is done: (§1) A. Preparation of the β-lactamases Tem-1 and P99
(§2) The β-lactamases are isolated from bacterial strains which are resistant to penicillins and cephalosporins (Tem1 and P99 are produced by E.coli 250HT21 and E.Cloacae 293HT6 respectively).
(§3) The bacteria are cultured at 37° C. in heart-brain culture at 37 g/l (DIFCO). They are harvested at the end of the exponential phase, cooled down and centrifuged. The bacterial pellets are taken up in sodium phosphate buffer 50 mM, pH 7.0 and centrifuged again. The bacteria are taken up in two volumes of the same buffer and lyzed using a French-Press maintained at 4° C. After centrifugation for 1 hour at 100,000 g, at 4° C., the supernatants containing the soluble fraction of the bacterial extracts are recovered and frozen at −80° C.
(§4) The method uses Nitrocefin (OXOID), cephalosporin chromogene as substrate, of which the product hydrolyzed by the B-lactamases is red and absorbs at 485 nm. Beta-lactamase activity is determined kinetically by measurement of the absorbance variation at 485 nm resulting from the hydrolysis of the substrate using a plate spectrophotometer (Spectra Max More Molecular Devices). The experiments are carried out at 37° C. The quantity of enzyme was normalized and the measurements are carried out at initial speed.
(§5) Two measurements were carried out, without preincubation and with preincubation of the enzyme and inhibitor (5 mn), in order to test the irreversibility of the reaction. The products are tested at 6 or 8 concentrations in duplicate. The reaction mixture contains 100 μM of Nitrocefin and 50 mM sodium phosphate buffer pH7.0.
(§6) The hydrolysis speeds are measured with and without inhibitor. The concentration of inhibitor which inhibits by 50% the hydrolysis reaction of Nitrocefin by the enzyme (CI50) is determined. The data is processed using GraFit software (Erathycus Software).

For test [2], the target named is T2, β-lactamase P99 (Enterobacter cloacae, UniProt P05364).
T2 construct: The β-lactamases are isolated from bacterial strains which are resistant to penicillins and cephalosporins; endogenous in cells; host or cells: Enterobacter cloacae 293HT6 (natural producer; French-press lysate, 100,000 g supernatant)
Nature of the test: biochemical. The following applies: 100 μM Nitrocefin, 50 mM sodium phosphate buffer pH7.0, 37° C.; read-out: IC50 nM/P99. How it is done: as §1, §2, §3, §4, §5, §6

Counter-ions that a name gives are not always drawn.

T1 sequence (P62593 24-286 limits assumed): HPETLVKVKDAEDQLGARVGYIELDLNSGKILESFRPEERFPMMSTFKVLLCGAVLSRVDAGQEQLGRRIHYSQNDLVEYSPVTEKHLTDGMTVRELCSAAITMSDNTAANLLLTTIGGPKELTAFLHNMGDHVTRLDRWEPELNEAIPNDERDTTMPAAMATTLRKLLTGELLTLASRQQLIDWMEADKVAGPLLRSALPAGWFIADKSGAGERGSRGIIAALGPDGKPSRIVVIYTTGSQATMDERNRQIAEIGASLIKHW
T2 sequence (P05364 21-381): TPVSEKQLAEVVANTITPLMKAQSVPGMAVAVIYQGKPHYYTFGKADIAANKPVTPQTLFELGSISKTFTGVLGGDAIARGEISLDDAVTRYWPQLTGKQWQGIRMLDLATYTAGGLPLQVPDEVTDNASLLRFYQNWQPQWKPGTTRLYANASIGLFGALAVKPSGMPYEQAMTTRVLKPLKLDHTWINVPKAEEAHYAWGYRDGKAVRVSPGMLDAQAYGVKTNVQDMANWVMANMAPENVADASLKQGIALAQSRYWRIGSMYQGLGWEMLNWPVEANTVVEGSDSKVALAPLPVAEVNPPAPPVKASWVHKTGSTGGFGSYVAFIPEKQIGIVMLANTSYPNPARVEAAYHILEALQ

For `O=C(O)CC[C@@H]1CCN2C[C@H]1OC2=O` (relative stereo) [Example 1a, cis-7-oxo-6-oxa-1-azabicyclo[3.2.1]octane-4-propanoic acid], the IC50 in test [1] was 700 nM; in test [2], over 10000 nM.

The molecule `C=CCOC(=O)N1C(=O)N2CC1CCC2C(=O)OCc1ccc([N+](=O)[O-])cc1` (stereo not drawn) [Example 31, trans (4-nitrophenyl)methyl and 2-propenyl 7-oxo-1,6-diazabicyclo[3.2.1]octane-2,6-dicarboxylate] registered an IC50 in test [1] of 5700 nM.

`Cc1ccc(S(=O)(=O)ON2C(=O)N3CCCC2C3)cc1` (centres unmarked) [Example 19e, 6-[[(4-methylphenyl)sulphonyl]oxy]-1,6-diazabicyclo[3.2.1]octan-7-one] yielded an IC50 in test [1] of 11 nM.

In the case of `O=C(NCc1ccccc1)[C@@H]1CC[C@@H]2CN1C(=O)N2C(=O)c1ccccc1` (relative stereo) [Example 29d, trans-6-benzoyl-7-oxo-N-(phenylmethyl)-1,6-diazabicyclo[3.2.1]octane-2-carboxamide], the IC50 in test [1] stood at 9500 nM; in test [2], 2000 nM.

For the molecule `N#CC[C@@H]1CCN2C[C@H]1OC2=O` (relative stereo) [Example 4, cis-7-oxo-6-oxa-1-azabicyclo[3.2.1]octan-4-acetonitrile], the IC50 in test [1] amounted to 2710 nM.

On to `O=C(c1ccccc1)N1C(=O)N2CCC1C2` (centres unmarked) [Example 5, 3-benzoyl-1,3-diazabicyclo[2.2.1]heptan-2-one], for which the IC50 in test [1] is 1010 nM.

In test [1], `CS(=O)(=O)ON1C(=O)N2CCCC1C2` (centres unmarked) [Example 19f, 6-[(methylsulphonyl)oxy]-1,6-diazabicyclo[3.2.1]octan-7-one] had an IC50 of 110 nM.

Turning to `O=C(OCc1ccccc1)C1CCC2CN1C(=O)N2OS(=O)(=O)O` (stereo not drawn) [Example 28b, Sodium salt of trans phenylmethyl 7-oxo-6-(sulphooxy)-1,6-diazabicyclo[3.2.1]octane-2-carboxylate], the IC50 in test [1] was determined as 9.5 nM; in test [2], 12 nM.

For `O=C1N2CC=CC(C2)N1OS(=O)(=O)O` (centres unmarked) [Example 53, Sodium salt of 6-(sulphooxy)-1,6-diazabicyclo[3.2.1]oct-3-in-7-one], the IC50 in test [1] stood at 15 nM; in test [2] it was 5900 nM.

Molecule `O=C(O)C[C@@H]1CCN2C[C@H]1OC2=O` (relative stereo) [Example 3a, cis-7-oxo-6-oxa-1-azabicyclo[3.2.1]octan-4-acetic acid] registered an IC50 in test [1] of 4400 nM.

As to `O=C1N2CCCC(C2)N1OS(=O)(=O)O` (centres unmarked) [Example 54, Sodium salt of 6-(sulphooxy)-1,6-diazabicyclo[3.2.1]octan-7-one], the IC50 in test [1] was determined as 3100 nM.

In turn, `COC(=O)C[C@@H]1CCN2C[C@H]1OC2=O` (relative stereo) [Example 3b, cis methyl 7-oxo-6-oxa-1-azabicyclo[3.2.1]octan-4-acetate] registered an IC50 in test [1] of 2010 nM.

In the case of `O=C(O)C[C@@H]1CCN2C[C@@H]1OC2=O` (relative stereo) [Example 2a, trans-7-oxo-6-oxa-1-azabicyclo[3.2.1]octan-4-acetic acid], the IC50 in test [1] worked out at 6730 nM.

As to `O=C(OCc1ccccc1)[C@H]1C[C@@H]2CN1C(=O)N2S(=O)(=O)c1ccccc1` (relative stereo) [Example 8, trans phenylmethyl 2-oxo-3-(phenylsulphonyl)-1,3-diazabicyclo[2.2.1]heptane-6-carboxylate], the IC50 worked out at 1400 nM in test [1] and 62 nM in test [2].

Consider `O=C(O)C1CCC2CN1C(=O)N2C(=O)c1ccccc1` (stereo not drawn) [Example 29b, trans-6-benzoyl-7-oxo-1,6-iazabicyclo[3.2.1]octane-2-carboxylic acid], for which the IC50 stood at 460 nM in test [1] and 4200 nM in test [2].

As for `O=C(c1ccccc1)N1C(=O)N2CCCC1C2` (centres unmarked) [Example 14, 6-benzoyl-1,6-diazabicyclo[3.2.1]octan-7-one], the IC50 in test [1] came to 6400 nM.

As for `O=C(OCc1ccccc1)[C@@H]1C[C@@H]2CN1C(=O)N2OS(=O)(=O)O` (relative stereo) [Example 10, 1-propenyltriphenylphosphonium salt of trans phenylmethyl 2-oxo-3-(sulphooxy)-1,3-diazabicyclo[2.2.1]heptane-6-carboxylate], the IC50 stood at 0.26 nM in test [1] and 1.5 nM in test [2].

For the molecule `O=C(C[C@@H]1CCN2C[C@H]1OC2=O)OC(c1ccccc1)c1ccccc1` (relative stereo) [Example 3, cis diphenylmethyl 7-oxo-6-oxa-1-azabicyclo[3.2.1]octan-4-acetate], the IC50 came to 590 nM in test [1] and 9800 nM in test [2].

Turning to `O=C1OC2C=CCN1C2` (centres unmarked) [Example 22, 6-oxa-1-azabicyclo[3.2.1]oct-3-en-7-one], the IC50 in test [1] came out at 5100 nM.

Consider `O=C(c1ccccc1)N1C(=O)N2CC1CCC2CO` (centres unmarked) [Example 29f, 6-benzoyl-2-(hydroxymethyl)-1,6-diazabicyclo[3.2.1]octan-7-one], for which the IC50 in test [1] was found to be 5200 nM.

In test [1], “trans phenylmethyl 6-(2-hydroxy-2-oxoethoxy)-7-oxo-1,6-diazabicyclo[3.2.1]octane-2-carboxylate [Example 28e]” came in with an IC50 of 52 nM.

In the case of “6-benzoyl—N—[methyl(phenylmethyl)]-7-oxo-1,6-diazabicyclo[3.2.1]octane-2-carboxamide [Example 29e]”, the values for the IC50 in test [1] and in test [2] were 4200 nM and 6300 nM, respectively.

`O=C(C[C@@H]1CCN2C[C@@H]1OC2=O)OC(c1ccccc1)c1ccccc1` (relative stereo) [Example 2, Trans diphenylmethyl 7-oxo-6-oxa-1-azabicyclo[3.2.1]octan-4-acetate]: in test [1], the IC50 was found to be 462 nM.

Turning to `C[C@@]12C[C@H](C(=O)OCc3ccccc3)N(C1)C(=O)N2C(=O)c1ccccc1` (relative stereo) [Example 9, trans phenylmethyl 3-benzoyl-4-methyl-2-oxo-1,3-diazabicyclo[2.2.1]heptane-6-carboxylate], the IC50 in test [1] stood at 8500 nM; in test [2] it was 630 nM.

Turning to `O=C(OCc1ccccc1)C1CCC2CN1C(=O)N2OS(=O)(=O)c1cccs1` (stereo not drawn) [Example 28d, trans pheylmethyl 7-oxo-6-[(2-thienylsulphonyl)oxy]-1,6-diazabicyclo[3.2.1]octane-2-carboxylate], the IC50 in test [1] came out at 1.3 nM; in test [2], 390 nM.

Turning to `COC(=O)[C@@H]1CC[C@@H]2CN1C(=O)O2` (relative stereo) [Example 26c, trans methyl 7-oxo-6-oxa-1-azabicyclo[3.2.1]octane-2-carboxylate], the figures for the IC50 in test [1] and in test [2] were 1100 nM and 7000 nM, respectively.

On to `O=C(OCc1ccccc1)[C@H]1C[C@@H]2CN1C(=O)N2C(=O)c1ccccc1` (relative stereo) [Example 7a, trans phenylmethyl 3-benzoyl-2-oxo-1,3-diazabicyclo[2.2.1]heptane-6-carboxylate], for which the IC50 in test [1] came to 55 nM; in test [2], 17 nM.

`O=C(O)C1CCC2CN1C(=O)O2` (stereo not drawn) [Example 26b, trans-7-oxo-6-oxa-1-azabicyclo[3.2.1.]octane-2 carboxylic acid] displayed an IC50 in test [1] of 4900 nM.

`O=C1N2CCCC(C2)N1OS(=O)(=O)c1ccc([N+](=O)[O-])cc1` (centres unmarked) [Example 19g]: the IC50 in test [1] amounted to 29 nM.

Consider `COC1=CC2CN(C1)C(=O)N2OS(=O)(=O)O` (centres unmarked) [Example 52, Sodium salt of 3-methoxy-6-(sulphooxy)-1,6-diazabicyclo[3.2.1]oct-3-in-7-one], for which the IC50 is 11 nM in test [1] and 4600 nM in test [2].
